Laboratory results as given in patent publication US4233224A, “Coriolin derivatives” (priority 1978, dated 1980).
Values after ≈ are worked out from the molar mass of the structure shown. Like-named read-outs stand apart in the source and are kept apart here.

Experiments:
[1] = known coriolin type compounds; J. Antibiotics, Tetrahedron Letters; cited from earlier work
[2] = tested on: L-1210 (lymphatic leukemia strain); assay: Life-prolonging effect in cancer (L-1210) affected mice; assay type: in vivo, mouse (BDF1); conditions: once a day for 10 days, from 24 hours after intraperitoneal inoculation of 1×10^5 L-1210 cells, BDF1 mice, compared with control group
Experimental: The L-1210 cells (1×10^5, 0.05 ml) were inoculated into the BDF1 mouse abdorminal cavities (BDF1 means a strain name of mouse), and after lapse of 24 hours, a measured amount of preparation (suspended in 0.5% CMC aqueous solution) was administered once a day for a period of 10 days.
The mice were observed till death, and by comparing the average number of surviving days of the tested mice with that of the control group (to which a 0.5% CMC aqueous solution alone was given), the life prolongation rate was calculated from the following formula: [drawing 17]

HeLa S3 cells [3] = assay: cells; assay type: cell-based; conditions: Homo sapiens, 72 h, 3 days, read-out: ID50 (the source's name)
HeLa S3 cells [4] = assay: cells; assay type: cell-based; conditions: for inhibition at 1 µg/mL: 1 μg/ml; for inhibition at 2 µg/mL: 2 μg/ml
Experimental: The HeLa S3 cells were scattered in a plastic laboratory dish, 6 cm in diameter, at the rate of 0.7×10^5 cells/plate by using as a medium an Eagle's MEM (Minimum Essential Medium) [Science, 30, 432-437 (1959)] containing 60 μg/ml of kanamycin and 10% calf serum. On the 2nd day, the medium was removed and a measured quantity of the compound of this invention was added together with a fresh serum-impregnated Eagle's MEM. The cell population at this time was 1.58×10^5 cells/plate. After adding the compound (I) of this invention thereto, cultures were grown for 3 days and then the medium was removed, followed by washing with physiological saline, treatment with 0.05% trypsin at room temperature for about 15 minutes and pipetting to disperse the cells. The cell number was counted by a counter and percent inhibition (%) was calculated from the number of the control cells (to which no compound was added) to determine […]. [formula]

[5] = Homo sapiens, 72 h, 0.5 μg/ml, HeLa S3 cells, 3 days, read-out: Percent inhibition
[6] = Homo sapiens, 72 h, HeLa S3 cells, 3 days, read-out: Percent inhibition
[7] = Homo sapiens, HeLa S3, 72 h, read-out: Percent inhibition

IC50 (HeLa S3 cells [3]) [µg/mL] | Compound | anti-tumor activity (in words) [1] | Life-prolonging effect (life prolongation rate) ([2]; dose 12.5 μg/mouse × 10) [%] | Life-prolonging effect (life prolongation rate) ([2]; dose 25 μg/mouse × 10) [%] | Life-prolonging effect (life prolongation rate) ([2]; dose 50 μg/mouse × 10) [%] | inhibition at 1 µg/mL (HeLa S3 cells [4]; [6]) [%] | Life-prolonging effect (life prolongation rate) ([2]; dose 100 μg/mouse × 10) [%] | Life-prolonging effect (life prolongation rate) ([2]; dose 200 μg/mouse × 10) [%] | further results
– | CCCCCCCC(=O)O[C@@H]1[C@@H]2[C@H](CC1(C)C)C(=O)[C@@]13O[C@@H]1C(=O)[C@@]1(CO1)[C@@]23C [5,8-dehydrocoriolin B] | having an anti-tumor activity | – | – | – | – | – | – | –
0.76 (≈ 1.87 µM) | CCCCCCCC(=O)O[C@@H]1[C@@H]2[C@H](CC1(C)C)[C@H](O)[C@@]13O[C@@H]1C(=O)[C@@]1(CO1)[C@@]23C [5-dehydrocoriolin B VI, 5-dehydrocoriolin B, reference compound] | having an anti-tumor activity | 138 | 137 | 144 | 77.6 | – | – | Life-prolonging effect (life prolongation rate) ([2]; dose 6 μg/mouse × 10): 106%; inhibition at 0.5 µg/mL (HeLa S3 cells [4]; [5]): 20%
2.1 (≈ 4.42 µM) | C=C1CC2(OC1=O)[C@H]1CC(C)(C)[C@H](OC(=O)CCCCCCC)[C@H]1[C@]1(C)[C@]3(CO3)[C@@H](O)[C@H]3O[C@@]321 (stereo partly drawn) [I, 1α-octanoyl-4β, 15:6β,7β-dioxide-5β-hydroxy-8(22-methylene-21-butanolide)hirsutane] | – | – | – | 96 | – | 111 | 130 | inhibition at 2 µg/mL (HeLa S3 cells [4]; [6]): 48%; inhibition at 4 µg/mL (HeLa S3 cells [4]; Homo sapiens, 72 h, 4 μg/ml, HeLa S3 cells, 3 days, read-out: Percent inhibition): 76.2%
1.1 (≈ 2.32 µM) | C=C1CC2(OC1=O)[C@H]1O[C@]13[C@@H](O)[C@H]1CC(C)(C)[C@H](OC(=O)CCCCCCC)[C@H]1[C@]3(C)[C@]21CO1 (stereo partly drawn) [III, 1α-octanoyl-4β,15:6β,7β-dioxide-5(19-methylene-18-butanolide)-8β-hydroxy-hirsutane] | – | 106 | 127 | 141 | 42.9 | 148 | 148 | Life-prolonging effect (life prolongation rate) ([2]; dose 6 μg/mouse × 10): 99%; inhibition at 2 µg/mL (HeLa S3 cells [4]; [6]): 96.6%
0.6 (≈ 1.27 µM) | C=C1CC2(OC1=O)[C@H]1O[C@]13C(=O)[C@H]1CC(C)(C)[C@H](OC(=O)CCCCCCC)[C@H]1[C@]3(C)[C@]21CO1 (stereo partly drawn) [IV, 1α-octanoyl-4β,15:6β,7β-dioxide-5(19-methylene-18-butanolide)-8-oxo-hirsutane] | – | 99 | 113 | 106 | 71.6 | 127 | 127 | inhibition at 0.5 µg/mL (HeLa S3 cells [4]; [5]): 43.3%
– | C=C1CC2(OC1=O)[C@H]1O[C@]13C1(CC(=C)C(=O)O1)[C@H]1CC(C)(C)[C@H](OC(=O)CCCCCCC)[C@H]1[C@]3(C)[C@]21CO1 (stereo partly drawn) [V, 1α-octanoyl-4β,15:6β,7β-dioxide-5(19-methylene-18-butanolide)-8(22-methylene-21-butanolide)hirsutane] | – | – | – | – | – | 99 | 120 | IC50 (HeLa S3 cells [4]; Homo sapiens, HeLa S3, 72 h, read-out: ID50): 0.47 µg/mL (≈ 0.869 µM); inhibition at 0.25 µg/mL (HeLa S3 cells [4]; [7]): 22.4%; inhibition at 0.5 µg/mL (HeLa S3 cells [4]; [7]): 56.9%
– | coriolin | having an anti-tumor activity | – | – | – | – | – | – | –
– | coriolin C | having an anti-tumor activity | – | – | – | – | – | – | –

Compound | IC50 (HeLa S3 cells [3]) [µg/mL] | anti-tumor activity (in words) [1] | Life-prolonging effect (life prolongation rate) ([2]; dose 12.5 μg/mouse × 10) [%] | Life-prolonging effect (life prolongation rate) ([2]; dose 25 μg/mouse × 10) [%] | Life-prolonging effect (life prolongation rate) ([2]; dose 50 μg/mouse × 10) [%] | inhibition at 1 µg/mL (HeLa S3 cells [4]; [6]) [%] | Life-prolonging effect (life prolongation rate) ([2]; dose 100 μg/mouse × 10) [%] | Life-prolonging effect (life prolongation rate) ([2]; dose 200 μg/mouse × 10) [%] | further results
C=C1CC2(OC1=O)[C@H]1CC(C)(C)[C@H](OC(=O)CCCCCCC)[C@H]1[C@]1(C)[C@]3(CO3)C(=O)[C@H]3O[C@@]321 (stereo partly drawn) [II, 1α-octanoyl-4β,15:6β,7β-dioxide-5-oxo-8(22-methylene-21-butanolide)hirsutane] | 0.12 (≈ 0.254 µM) | – | – | – | – | – | – | – | inhibiting growth of the HeLa S3 cells (in words) (HeLa S3 cells [4]; HeLa S3 cells): works marvelously in preventing growth of the cancerous cells; inhibition at 0.1 µg/mL (HeLa S3 cells [4]; Homo sapiens, 72 h, 0.1 μg/ml, HeLa S3 cells, 3 days, read-out: Percent inhibition): 40.2%; inhibition at 0.2 µg/mL (HeLa S3 cells [4]; Homo sapiens, 72 h, 0.2 μg/ml, HeLa S3 cells, 3 days, read-out: Percent inhibition): 83.2%; toxicity (in words) (HeLa S3 cells [4]; stated with ID50, HeLa S3 cells): extremely low in toxicity
